Assay results from patent publication US7078499B2, “Nucleotide analogues comprising a reporter moiety and a polymerase enzyme blocking moiety” (GE Healthcare UK Limited, priority 2000, dated 2006).

Key:
Type in all cases: biochemical
Vent™ DNA polymerase = experiment: Thermostable DNA polymerase primer extension, Vent; parameters: key to result of incorporation (termination / further chain extension): T: Incorporation results in termination; E: Incorporation permits further chain extension; T/E: Predominant product is primer extended by one base, but evidence of some further extension also observed; details: DNA template, 45° C. for 20–40 minutes; for primer extended by at least one base within assay time (grade): TTP replaced entirely by test compound
Experimental: (§1) DNA polymerase assays were performed using Sequence 1 as primer and Sequence 2 as template. • Sequence 1 5′[Cy3]TAACTCATTAACAGGATC 3′ • Sequence 2 5′AT TCGCGGTATTCTGGTATGAAGCTTTTAGATCCTGTTAATGAGTTA GTA3′
(§2) The template (Sequence 2) was designed such that the base (underlined) immediately adjacent to the 3′ end of the hybridised primer is complementary to the nucleotide test compound. Nucleotide test compounds were compounds (6) (4′-C-(glycylaminomethyl)thymidine triphosphate), (8) (4′-C-(N-trifluoroacetyaminomethyl)thymidine triphosphate) and (9) (4′-C-(aminomethyl)thymidine triphosphate) as described above.
(§3) Primer extension reactions were performed using the above primers in the presence of 40 to 80 μM of nucleotide triphosphates. Positive control reactions contained all four native nucleotide triphosphates. For the other reactions the TTP was replaced with either a 2:1 ratio of […] for the terminator control, or entirely by the test compound The enzymes were used at a final concentration of 0.175 units/μl and a magnesium ion concentration of 2.5 mM in buffers supplied by the manufacturer. The primer and template concentrations were 0.5 pmol/μl and 2 pmol/μl respectively.
(§4) Extension reactions with thermophilic enzymes were performed by initially denaturing the fully assembled reactions at 70° C. for 5 min. followed by 45° C. for 20–40 minutes. The following enzymes were used: Taq DNA polymerase (Taq); Thermosequenase (TS); Thermosequenase II (TSII); Thermosequenase E (TSE), Tfl DNA polymerase (Tfl); Tth DNA polymerase (Tth), deltaTts DNA polymerase (deltaTts), deltaTts D DNA polymerase (dettaTTSD) (all from APBiotech); Pfu DNA polymerase (Pfu) (Stratagene Ltd); Vent™ DNA polymerase (Vent) (New England Biolabs).
(§5) The reactions were stopped by adding a 0.5 volume aliquot of 80% formamide containing 0.1% (w/v) bromophenol blue and 0.1% (w/v) cresol blue. The reaction products were separated by denaturing gel electrophoresis at a constant power of 45 W on 16% polyacrylamide gels containing 50% urea.
(§6) Gels were scanned for Cy3 fluorescence on a Molecular Dynamics Fluorimager and the data analysed using Molecular Dynamics ImageQuant 5 software.
(§7) The incorporation of a test nucleotide triphosphate results in the appearance on a polyacrylamide gel of a single band corresponding to a single base extension product. If, however, the enzyme adds additional bases then further bands would be observed that corresponded to either the full-length product or positions of other complementary bases in the template.

Thermosequenase II = experiment: Thermostable DNA polymerase primer extension, TSII; parameters: key to result of incorporation (termination / further chain extension): T: Incorporation results in termination; E: Incorporation permits further chain extension; T/E: Predominant product is primer extended by one base, but evidence of some further extension also observed; details: DNA template, 45° C. for 20–40 minutes; for primer extended by at least one base within assay time (grade): TTP replaced entirely by test compound
Experimental: as §1, §2, §3, §4, §5, §6, §7

T7 DNA polymerase = biological target: T1, T7 DNA polymerase (Escherichia phage T7, UniProt P00581); experiment: Mesophilic DNA polymerase primer extension, T7; parameters: key to result of incorporation (termination / further chain extension): T: Incorporation results in termination; E: Incorporation permits further chain extension; T/E: Predominant product is primer extended by one base, but evidence of some further extension also observed; details: DNA template, 37° C. for 20–40 minutes; for primer extended by at least one base within assay time (grade): TTP replaced entirely by test compound
T1 construct: purchased AP Biotech
Experimental: as §1, §2, §3
(§8) Extension reactions preformed with mesophilic polymerases were carried out by mixing all the components of the reaction except the enzyme and heating to 70° C. for 5 min. After the reactions had cooled to room temperature 0.175 units of the enzyme were added and the reactions heated to 37° C. for 20–40 minutes. The following enzymes were used: T7 DNA polymerase (T7); Sequenase 2™ (Seq); Klenow fragment of DNA polymerase 1 (Klen); phi-29 DNA polymerase (Phi-29); T4 DNA polymerase (T4) (all from AP Biotech) and Bst DNA polymerase (Bst) (Cambio Ltd).
as §5, §6, §7

Taq DNA polymerase = biological target: T2, Taq DNA polymerase (Thermus aquaticus, UniProt P19821); experiment: Thermostable DNA polymerase primer extension, Taq; parameters: key to result of incorporation (termination / further chain extension): T: Incorporation results in termination; E: Incorporation permits further chain extension; T/E: Predominant product is primer extended by one base, but evidence of some further extension also observed; details: DNA template, 45° C. for 20–40 minutes; for primer extended by at least one base within assay time (grade): TTP replaced entirely by test compound
T2 construct: purchased APBiotech
Experimental: as §1, §2, §3, §4, §5, §6, §7

Tth DNA polymerase = biological target: T3, Tth DNA polymerase (Thermus thermophilus, UniProt P52028); experiment: Thermostable polymerase under reverse transcription conditions, Tth; parameters: key to result of incorporation (termination / further chain extension): T: Incorporation results in termination; E: Incorporation permits further chain extension; T/E: Predominant product is primer extended by one base, but evidence of some further extension also observed; key to primer extended by at least one base within assay time (grade): −: No extension within assay time; +/−: up to 25% of primer extended by at least one base within assay time; +: up to 50% of primer extended by at least one base within assay time; ++: up to 75% of primer extended by at least one base within assay time; +++: essentially all primer extended by at least one base within assay time; details: RNA template, 2.5 mM Manganese ions; for primer extended by at least one base within assay time (grade): Tth reaction buffer
T3 construct: purchased APBiotech
Experimental: as §1, §2, §3, §4
(§9) Reverse transcriptase reactions were performed essentially as described above for thermophilic and mesophilic enzymes. The template for these reactions was the RNA equivalent of sequence 2. All the thermophilic enzymes were assayed in Tth reaction buffer (Cambio Ltd, Cambridge UK) containing 2.5 mM Manganese ions. The following enzymes were used: Thermosequenase (TS1); Thermosequenase II (TSII); delta Tts DNA polymerase (deltaTts); delta Tts D DNA polymerase (deltaTtsD) (all from APBiotech); Retrotherm reverse transcriptase (Retroth) (Cambio Ltd); Tth DNA polymerase (Tth) (Cambio Ltd.).
as §5, §6, §7

Thermosequenase E = experiment: Thermostable DNA polymerase primer extension, TSE; parameters: key to result of incorporation (termination / further chain extension): T: Incorporation results in termination; E: Incorporation permits further chain extension; T/E: Predominant product is primer extended by one base, but evidence of some further extension also observed; details: DNA template, 45° C. for 20–40 minutes; for primer extended by at least one base within assay time (grade): TTP replaced entirely by test compound
Experimental: as §1, §2, §3, §4, §5, §6, §7

MuLV RT = biological target: T4, MuLV RT (Moloney murine leukemia virus, UniProt P03355); experiment: Mesophilic reverse transcriptase reaction, MuLV RT; parameters: key to result of incorporation (termination / further chain extension): T: Incorporation results in termination; E: Incorporation permits further chain extension; T/E: Predominant product is primer extended by one base, but evidence of some further extension also observed; details: RNA template, final enzyme concentration of 4 units/μl
T4 construct: MuLv Reverse transcriptase or HIV reverse transcriptase; purchased APBiotech
Experimental: as §1, §2, §3, §8, §9
Mesophilic reverse transcriptases (AMV RT; MuLV RT; SAV RT and HIV RT all from APBiotech) were assayed in their respective buffers with a final enzyme concentration of 4 units/μl.
as §5, §6, §7

T2 sequence (P19821 whole entry): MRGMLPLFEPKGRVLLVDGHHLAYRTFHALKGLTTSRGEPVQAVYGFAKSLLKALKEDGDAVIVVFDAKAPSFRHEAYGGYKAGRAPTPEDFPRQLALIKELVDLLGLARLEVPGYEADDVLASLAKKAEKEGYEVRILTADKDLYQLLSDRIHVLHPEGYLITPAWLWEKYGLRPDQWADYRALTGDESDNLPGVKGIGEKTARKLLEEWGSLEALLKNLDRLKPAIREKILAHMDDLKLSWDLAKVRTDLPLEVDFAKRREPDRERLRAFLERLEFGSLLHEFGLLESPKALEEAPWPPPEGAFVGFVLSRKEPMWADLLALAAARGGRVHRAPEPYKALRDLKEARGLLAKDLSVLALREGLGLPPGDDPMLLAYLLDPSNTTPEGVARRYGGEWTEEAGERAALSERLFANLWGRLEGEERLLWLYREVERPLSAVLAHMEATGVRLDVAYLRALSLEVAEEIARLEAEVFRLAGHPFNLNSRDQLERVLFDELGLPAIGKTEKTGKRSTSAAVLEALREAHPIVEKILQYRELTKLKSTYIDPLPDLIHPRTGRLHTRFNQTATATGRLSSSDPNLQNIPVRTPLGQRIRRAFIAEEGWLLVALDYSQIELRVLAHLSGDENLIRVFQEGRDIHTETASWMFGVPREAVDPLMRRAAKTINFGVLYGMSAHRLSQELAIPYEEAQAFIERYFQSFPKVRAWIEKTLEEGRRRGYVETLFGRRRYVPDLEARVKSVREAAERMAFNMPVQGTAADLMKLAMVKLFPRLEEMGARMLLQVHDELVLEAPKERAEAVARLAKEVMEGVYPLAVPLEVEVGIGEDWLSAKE
T1 sequence (P0AA25 2-109): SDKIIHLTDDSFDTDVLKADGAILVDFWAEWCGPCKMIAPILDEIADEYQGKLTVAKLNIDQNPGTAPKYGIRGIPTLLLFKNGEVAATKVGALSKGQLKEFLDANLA
T1 sequence (P00581 whole entry): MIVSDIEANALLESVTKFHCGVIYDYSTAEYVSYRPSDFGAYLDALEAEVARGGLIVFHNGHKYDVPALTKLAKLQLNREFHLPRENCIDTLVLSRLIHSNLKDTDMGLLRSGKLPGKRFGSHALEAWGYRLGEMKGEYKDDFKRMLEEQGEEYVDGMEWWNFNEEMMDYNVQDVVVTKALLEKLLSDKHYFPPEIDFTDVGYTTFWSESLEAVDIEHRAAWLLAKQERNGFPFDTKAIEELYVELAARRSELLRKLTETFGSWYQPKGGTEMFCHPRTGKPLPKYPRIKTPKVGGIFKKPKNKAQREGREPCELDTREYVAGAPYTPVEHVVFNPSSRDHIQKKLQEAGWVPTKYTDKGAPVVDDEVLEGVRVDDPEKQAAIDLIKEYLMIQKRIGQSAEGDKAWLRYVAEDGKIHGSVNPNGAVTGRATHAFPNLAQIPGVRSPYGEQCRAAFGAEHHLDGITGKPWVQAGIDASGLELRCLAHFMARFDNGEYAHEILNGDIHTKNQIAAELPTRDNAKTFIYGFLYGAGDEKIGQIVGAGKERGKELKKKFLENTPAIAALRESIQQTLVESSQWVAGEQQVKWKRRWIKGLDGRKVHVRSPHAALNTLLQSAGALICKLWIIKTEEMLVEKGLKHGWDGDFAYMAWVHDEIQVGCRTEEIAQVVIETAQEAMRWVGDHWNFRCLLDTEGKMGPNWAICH
T3 sequence (P52028 whole entry): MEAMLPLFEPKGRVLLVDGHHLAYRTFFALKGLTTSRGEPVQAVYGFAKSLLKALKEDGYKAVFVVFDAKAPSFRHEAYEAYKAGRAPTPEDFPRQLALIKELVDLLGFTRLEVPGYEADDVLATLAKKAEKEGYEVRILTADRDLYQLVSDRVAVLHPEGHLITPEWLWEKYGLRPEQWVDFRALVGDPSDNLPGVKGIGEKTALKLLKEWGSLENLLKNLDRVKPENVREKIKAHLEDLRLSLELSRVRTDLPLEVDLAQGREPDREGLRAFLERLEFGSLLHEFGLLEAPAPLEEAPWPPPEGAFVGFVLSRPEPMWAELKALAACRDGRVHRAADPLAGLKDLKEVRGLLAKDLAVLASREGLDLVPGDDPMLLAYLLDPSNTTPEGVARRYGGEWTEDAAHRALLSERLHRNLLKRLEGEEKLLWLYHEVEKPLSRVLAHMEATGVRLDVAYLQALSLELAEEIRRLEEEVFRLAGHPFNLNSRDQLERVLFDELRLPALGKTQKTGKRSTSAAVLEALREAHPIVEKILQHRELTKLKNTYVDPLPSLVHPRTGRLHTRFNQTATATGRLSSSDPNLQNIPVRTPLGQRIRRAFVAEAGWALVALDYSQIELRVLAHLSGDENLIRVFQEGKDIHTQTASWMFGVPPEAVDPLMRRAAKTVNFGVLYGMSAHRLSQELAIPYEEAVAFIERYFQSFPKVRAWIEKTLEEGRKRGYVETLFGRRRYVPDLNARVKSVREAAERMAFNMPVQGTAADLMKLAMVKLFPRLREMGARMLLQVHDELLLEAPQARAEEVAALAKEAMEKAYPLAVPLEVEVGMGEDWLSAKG

| Compound | result of incorporation (termination / further chain extension) (Vent™ DNA polymerase) | primer extended by at least one base within assay time (grade) (Vent™ DNA polymerase) | result of incorporation (termination / further chain extension) (Thermosequenase II) | primer extended by at least one base within assay time (grade) (Thermosequenase II) | result of incorporation (termination / further chain extension) (T7 DNA polymerase) | primer extended by at least one base within assay time (grade) (T7 DNA polymerase) | result of incorporation (termination / further chain extension) (Taq DNA polymerase) | primer extended by at least one base within assay time (grade) (Taq DNA polymerase) | result of incorporation (termination / further chain extension) (Tth DNA polymerase) | primer extended by at least one base within assay time (grade) (Tth DNA polymerase) | result of incorporation (termination / further chain extension) (Thermosequenase E) | primer extended by at least one base within assay time (grade) (Thermosequenase E) | primer extended by at least one base within assay time (grade) (MuLV RT) | result of incorporation (termination / further chain extension) (MuLV RT) |
| --- | --- | --- | --- | --- | --- | --- | --- | --- | --- | --- | --- | --- | --- | --- |
| Cc1cn([C@H]2C[C@H](O)[C@@](CNC(=O)C(F)(F)F)(COP(=O)(O)OP(=O)(O)OP(=O)(O)O)O2)c(=O)[nH]c1=O [compound (8), 4′-C-(N-trifluoroacetylaminomethyl)thymidine triphosphate] | T | +/− (up to 25% of primer extended by at least one base within assay time) | T | + (up to 50% of primer extended by at least one base within assay time) | T/E | +/− (up to 25% of primer extended by at least one base within assay time) | T | +/− (up to 25% of primer extended by at least one base within assay time) | T | +++ | T | ++ (up to 75% of primer extended by at least one base within assay time) | ++ (up to 75% of primer extended by at least one base within assay time) | E |
| 4′-C-(Aminomethyl)thymidine triphosphate [compound (9)] | T | +/− (up to 25% of primer extended by at least one base within assay time) | T | + (up to 50% of primer extended by at least one base within assay time) | T/E | +/− (up to 25% of primer extended by at least one base within assay time) | T | +/− (up to 25% of primer extended by at least one base within assay time) | T | +++ | T | ++ (up to 75% of primer extended by at least one base within assay time) | ++ (up to 75% of primer extended by at least one base within assay time) | E |
| 4′-C-(Glycylaminomethyl)thymidine triphosphate [compound (6)] | T | +/− (up to 25% of primer extended by at least one base within assay time) | T | + (up to 50% of primer extended by at least one base within assay time) | T/E | +/− (up to 25% of primer extended by at least one base within assay time) | T | +/− (up to 25% of primer extended by at least one base within assay time) | T | +++ | T | ++ (up to 75% of primer extended by at least one base within assay time) | ++ (up to 75% of primer extended by at least one base within assay time) | E |
